From paper PMC7490411 (Signal Transduction and Targeted Therapy, 2020)

Legend:
p38-delta = test: KINOMEscan; assay type: binding; settings: 1000 nM
ERK2 = test: KINOMEscan; assay type: binding; settings: 1000 nM
MYO3B = test: KINOMEscan; assay type: binding; settings: 1000 nM
FGFR3(G697C) = test: KINOMEscan; assay type: binding; settings: 1000 nM
BMX = biological target: T1, BMX (Homo sapiens, UniProt P51813); test: KINOMEscan; assay type: binding; settings: 1000 nM
T1 construct: purchased Invitrogen (Carlsbad, CA, USA)
T1 sequence (P51813 1-675): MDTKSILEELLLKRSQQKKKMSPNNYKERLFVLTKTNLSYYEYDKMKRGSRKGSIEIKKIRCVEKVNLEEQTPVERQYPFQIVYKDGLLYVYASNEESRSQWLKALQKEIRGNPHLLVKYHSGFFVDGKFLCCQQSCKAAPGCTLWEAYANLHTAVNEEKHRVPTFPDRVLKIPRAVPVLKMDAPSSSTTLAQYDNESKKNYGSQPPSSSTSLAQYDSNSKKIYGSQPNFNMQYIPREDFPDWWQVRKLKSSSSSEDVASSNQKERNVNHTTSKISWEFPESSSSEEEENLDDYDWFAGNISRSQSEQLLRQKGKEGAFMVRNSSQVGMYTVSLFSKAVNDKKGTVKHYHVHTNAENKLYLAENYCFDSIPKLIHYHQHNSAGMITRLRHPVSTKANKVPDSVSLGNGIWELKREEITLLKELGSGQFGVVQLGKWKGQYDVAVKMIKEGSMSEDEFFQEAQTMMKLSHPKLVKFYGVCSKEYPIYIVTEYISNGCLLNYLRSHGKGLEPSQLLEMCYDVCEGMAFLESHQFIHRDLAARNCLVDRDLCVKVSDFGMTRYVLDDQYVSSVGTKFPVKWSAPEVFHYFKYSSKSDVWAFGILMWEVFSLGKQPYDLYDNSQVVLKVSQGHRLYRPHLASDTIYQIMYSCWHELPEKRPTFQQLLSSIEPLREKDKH

CDK5 = test: KINOMEscan; assay type: binding; settings: 1000 nM
MST2 = test: KINOMEscan; assay type: binding; settings: 1000 nM
RIPK5 = test: KINOMEscan; assay type: binding; settings: 1000 nM
IGF1R = test: KINOMEscan; assay type: binding; settings: 1000 nM
DYRK1A = test: KINOMEscan; assay type: binding; settings: 1000 nM
TNK2 = test: KINOMEscan; assay type: binding; settings: 1000 nM
ALK(L1196M) = test: KINOMEscan; assay type: binding; settings: 1000 nM
FRK = test: KINOMEscan; assay type: binding; settings: 1000 nM
[1] = system: RSK4(Kin.Dom.1-N-terminal); test: KINOMEscan; assay type: binding; settings: 1000 nM
GAK = test: KINOMEscan; assay type: binding; settings: 1000 nM
CDK9 = test: KINOMEscan; assay type: binding; settings: 1000 nM
S6K1 = test: KINOMEscan; assay type: binding; settings: 1000 nM
PIP5K2C = test: KINOMEscan; assay type: binding; settings: 1000 nM
[2] = system: REC-1 cells bone marrow engraftment; test: REC-1 cells bone marrow engrafted mouse model; assay type: in vivo; settings: REC-1 bone marrow engraftment
Description: Five-week old female NOD-SCID mice were purchased from the Beijing Vital River Laboratory Animal Technology Co., Ltd (Beijing, China). All animals were housed in a specific pathogen free facility and used according to the animal care regulations of Hefei Institutes of Physical Science, Chinese Academy of Sciences. NOD-SCID mice were induced by intraperitoneal injection of cyclophosphamide (CTX) 50 mg/kg daily for two days. 8 million REC-1 cells in 0.3 mL RPMI1640 medium were injected by intravenous after 24 h. […] Mice were monitored daily and were euthanized when moribund or at early signs of hind limb paralysis.

HIPK4 = test: KINOMEscan; assay type: binding; settings: 1000 nM
CDC2L5 = test: KINOMEscan; assay type: binding; settings: 1000 nM
MUSK = test: KINOMEscan; assay type: binding; settings: 1000 nM
EPHA8 = test: KINOMEscan; assay type: binding; settings: 1000 nM
[3] = system: RSK3(Kin.Dom.2-C-terminal); test: KINOMEscan; assay type: binding; settings: 1000 nM
ABL1-nonphosphorylated = test: KINOMEscan; assay type: binding; settings: 1000 nM
DCAMKL2 = test: KINOMEscan; assay type: binding; settings: 1000 nM
TESK1 = test: KINOMEscan; assay type: binding; settings: 1000 nM
DAPK3 = test: KINOMEscan; assay type: binding; settings: 1000 nM
LTK = test: KINOMEscan; assay type: binding; settings: 1000 nM
MEK5 = test: KINOMEscan; assay type: binding; settings: 1000 nM
CAMKK2 = test: KINOMEscan; assay type: binding; settings: 1000 nM
MLK1 = test: KINOMEscan; assay type: binding; settings: 1000 nM
CAMK1 = test: KINOMEscan; assay type: binding; settings: 1000 nM
INSR = test: KINOMEscan; assay type: binding; settings: 1000 nM
[4] = system: JAK3(JH1domain-catalytic); test: KINOMEscan; assay type: binding; settings: 1000 nM
IRAK4 = test: KINOMEscan; assay type: binding; settings: 1000 nM
EPHA4 = test: KINOMEscan; assay type: binding; settings: 1000 nM
ABL2 = test: KINOMEscan; assay type: binding; settings: 1000 nM
ERK8 = test: KINOMEscan; assay type: binding; settings: 1000 nM
MYLK2 = test: KINOMEscan; assay type: binding; settings: 1000 nM
FLT1 = test: KINOMEscan; assay type: binding; settings: 1000 nM
TAOK2 = test: KINOMEscan; assay type: binding; settings: 1000 nM

Structure (SMILES): C=CC(=O)Nc1cc(Nc2cc(-c3cccc(NC(=O)c4cc5c(s4)CCCC5)c3C)cn(C)c2=O)ccc1N1CCN(CC)CC1 [CHMFL-BTK-85]
- Percent Control (p38-delta): 80%
- Percent Control (ERK2): 91%
- Percent Control (MYO3B): 92%
- Percent Control (FGFR3(G697C)): 87%
- percent of control binding at 1 µM (BMX): 59%
- Percent Control (CDK5): 98%
- Percent Control (MST2): 88%
- Percent Control (RIPK5): 98%
- Percent Control (IGF1R): 76%
- Percent Control (DYRK1A): 100%
- Percent Control (TNK2): 64%
- Percent Control (ALK(L1196M)): 100%
- Percent Control (FRK): 19%
- Percent Control [1]: 100%
- Percent Control (GAK): 100%
- Percent Control (CDK9): 100%
- Percent Control (S6K1): 100%
- Percent Control (PIP5K2C): 85%
- median survival time ([2]; 50 mg/kg/day p.o.): 42 days
- median survival time ([2]; 150 mg/kg/day p.o.): 63 days
- Percent Control (HIPK4): 91%
- Percent Control (CDC2L5): 100%
- Percent Control (MUSK): 91%
- Percent Control (EPHA8): 91%
- Percent Control [3]: 79%
- Percent Control (ABL1-nonphosphorylated): 76%
- Percent Control (DCAMKL2): 88%
- Percent Control (TESK1): 96%
- Percent Control (DAPK3): 65%
- Percent Control (LTK): 100%
- Percent Control (MEK5): 100%
- Percent Control (CAMKK2): 100%
- Percent Control (MLK1): 81%
- Percent Control (CAMK1): 100%
- Percent Control (INSR): 96%
- Percent Control [4]: 80%
- Percent Control (IRAK4): 100%
- Percent Control (EPHA4): 100%
- Percent Control (ABL2): 88%
- Percent Control (ERK8): 95%
- Percent Control (MYLK2): 91%
- Percent Control (FLT1): 100%
- Percent Control (TAOK2): 96%
